The values below come from US20250206732A1, “COMPOUNDS AND METHODS FOR THE TARGETED DEGRADATION OF KRAS” (Arvinas Operations, Inc., priority 2022, published 2025).

This assay addresses T1, AsPC-1 HiBiT-KRASG12D (Homo sapiens, UniProt P01116, G12D).
T1 construct: insert the HiBiT tag onto the N-terminus of one or more of the endogenous KRAS alleles; endogenous in cells; host or cells: AsPC-1 (ATCC CRL-1682), CRISPR-Cas9 knock-in clone, one tagged allele
The experiment in a line: HiBiT degradation assay (G12D), AsPC-1 HiBiT-KRASG12D cells. Type of assay: cell-based. As to conditions: 24 hours treatment; for Dmax: ASPC1, AsPC-1 HiBiT-KRASG12D cells, maximum degradation observed; for DC50: AsPC-1 HiBiT-KRASG12D cells, HiBiT luminescence. The method in brief: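 24 h cmpd treatment, 37° C/5% CO2, AsPC-1 HiBiT-KRASG12D clone (CRISPR N-term tag). Alamar blue 1×, 4 h, fluorescence. PBS wash, Nano-Glo HiBiT lytic reagent, 45 min RT, luminescence. Triplicates.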
A general note: With HiBiT, luminescence reflects the tagged protein that the partner subunit can reach.

Molecules are shown by their SMILES.

What is called Dmax is the largest share of the target that was removed. The DC50 is the concentration giving 50% degradation.

T1 sequence (P01116 1-188 isoform P01116-2 G12D): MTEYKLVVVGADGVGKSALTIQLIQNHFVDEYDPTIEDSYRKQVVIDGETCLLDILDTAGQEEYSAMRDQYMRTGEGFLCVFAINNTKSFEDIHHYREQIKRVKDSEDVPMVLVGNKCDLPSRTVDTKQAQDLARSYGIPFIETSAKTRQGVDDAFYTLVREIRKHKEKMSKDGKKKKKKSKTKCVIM

`CCc1cccc2cc(O)cc(-c3ncc4c(N5CC6CCC(C5)N6)nc(OCCN5C[C@@H]6CN(c7cc(C(C(=O)N8C[C@H](O)C[C@H]8C(=O)N[C@@H](C)c8ccc(-c9scnc9C)cc8)C(C)C)on7)C[C@@H]6C5)nc4c3F)c12` (relative stereo) [Compound 80, (2S,4R)-1-[(2R*)-2-{3-[(3aR,6aS)-5-{2-[(4-{3,8-diazabicyclo[3.2.1]octan-3-yl}-7-(8-ethyl-3-hydroxynaphthalen-1-yl)-8-fluoropyrido[4,3-d]pyrimidin-2-yl)oxy]ethyl}-octahydropyrrolo[3,4-c]pyrrol-2-yl]-1,2-oxazol-5-yl}-3-methylbutanoyl]-4-hydroxy-N-[(1S)-1-[4-(4-methyl-1,3-thiazol-5-yl)phenyl]ethyl]pyrrolidine-2-carboxamide]: the Dmax lay in the range of 80 to 100% and the DC50 was < 600 nM.
Regarding `C#Cc1c(F)ccc2cc(O)cc(-c3ncc4c(N5CC6CCC(C5)N6)nc(OCCN5CCC(C)(COc6cc([C@H](C(=O)N7C[C@H](O)C[C@H]7C(=O)N[C@@H](C)c7ccc(-c8scnc8C)cc7)C(C)C)on6)CC5)nc4c3F)c12` [Compound 313, (2S,4R)-1-[(2R)-2-{3-[(1-{2-[(4-{3,8-diazabicyclo[3.2.1]octan-3-yl}-7-(8-ethynyl-7-fluoro-3-hydroxynaphthalen-1-yl)-8-fluoropyrido[4,3-d]pyrimidin-2-yl)oxy]ethyl}-4-methylpiperidin-4-yl)methoxy]-1,2-oxazol-5-yl}-3-methylbutanoyl]-4-hydroxy-N-[(1S)-1-[4-(4-methyl-1,3-thiazol-5-yl)phenyl]ethyl]pyrrolidine-2-carboxamide], the Dmax lay in the range of 80 to 100% and the DC50 is < 600 nM.
The matching figures for `CCc1cccc2cc(O)cc(-c3ncc4c(N5CC6CCC(C5)N6)nc(OC[C@@H]5CC[C@H](COC(=O)N6CCN(c7cc([C@H](C(=O)N8C[C@H](O)C[C@H]8C(=O)N[C@@H](C)c8ccc(-c9scnc9C)cc8)C(C)C)on7)CC6)N5C)nc4c3F)c12` [Compound 259, [(2R,5S)-5-{[(4-{3,8-diazabicyclo[3.2.1]octan-3-yl}-7-(8-ethyl-3-hydroxynaphthalen-1-yl)-8-fluoropyrido[4,3-d]pyrimidin-2-yl)oxy]methyl}-1-methylpyrrolidin-2-yl]methyl 4-{5-[(2R)-1-[(2S,4R)-4-hydroxy-2-{[(1S)-1-[4-(4-methyl-1,3-thiazol-5-yl)phenyl]ethyl]carbamoyl}pyrrolidin-1-yl]-3-methyl-1-oxobutan-2-yl]-1,2-oxazol-3-yl}piperazine-1-carboxylate]: 80 to 100% and < 600 nM.
`CCc1cccc2cc(O)cc(-c3ncc4c(N5CC6CCC(C5)N6)nc(OCCN5CCC(C)(CCOc6cc([C@H](C(=O)N7C[C@H](O)C[C@H]7C(=O)N[C@@H](C)c7ccc(-c8scnc8C)cc7)C(C)C)on6)CC5)nc4c3F)c12` [Compound 237]: the DC50 is > 3000 nM.
With `CCc1cccc2cc(O)cc(-c3ncc4c(N5CC6CCC(C5)N6)nc(OC[C@]56CCCN5[C@@H](COC(=O)N5CCN(c7cc([C@H](C(=O)N8C[C@H](O)C[C@H]8C(=O)N[C@@H](C)c8ccc(-c9scnc9C)cc8)C(C)C)on7)CC5)CC6)nc4c3F)c12` (relative stereo) [Compound 110, [(3R*,7aR**)-7a-{[(4-{3,8-diazabicyclo[3.2.1]octan-3-yl}-7-(8-ethyl-3-hydroxynaphthalen-1-yl)-8-fluoropyrido[4,3-d]pyrimidin-2-yl)oxy]methyl}-hexahydro-1H-pyrrolizin-3-yl]methyl 4-{5-[(2R***)-1-[(2S,4R)-4-hydroxy-2-{[(1S)-1-[4-(4-methyl-1,3-thiazol-5-yl)phenyl]ethyl]carbamoyl}pyrrolidin-1-yl]-3-methyl-1-oxobutan-2-yl]-1,2-oxazol-3-yl}piperazine-1-carboxylate], the Dmax was in the range of 80 to 100% and the DC50 is < 600 nM.
